These results are taken from patent publication US11576987B2, “Compositions and methods of treating melanoma” (UNIVERSITY OF IOWA RESEARCH FOUNDATION, priority 2016, dated 2023).

Positions of bridges follow the written chain, without caps; N, C: chain ends. Non-standard residues stand in square brackets, D forms with d. Residues, ends and D or L forms follow the SMILES beside them. Groups on a side chain read outwards from the residue. Triazole bridges read from a SMILES are 1,4-linked. *: point of attachment. DOTA = O=C(O)CN1CCN(CC(=O)O)CCN(CC(=O)*)CCN(CC(=O)O)CC1; Lys(N3) = [N-]=[N+]=NCCCC[CH](N)C(=O)O; Nle = CCCC[CH](N)C(=O)O; Pra = C#CC[CH](N)C(=O)O; PEG2 = NCCOCCOCCC(=O)O

The subject of one series is MCR1 expression. Put plainly: Pharmacological enhancement of MCR1 expression in human melanoma cells by drug incubation. The series is classed as cell-based. The following applies: for MCR1 expression: metastatic melanoma cells. The source says:
Melanoma if detected early can be cured by surgery, but metastatic melanoma is lethal. New therapies (e.g., immunotherapy; BRAF inhibition, BRAFi) and combinations extend life, but low response rates, acquired drug resistance, and serious side effects are major challenges to improving outcomes for disseminated disease (5 y survival 17%). Peptide-based radionuclide therapy targeted to the melanocortin-receptor type 1 (MCR1-RT) has long been considered a promising alternative; and MCR1-RT has achieved complete responses in mouse models (B16). However, MCR1 expression is heterogeneous/low in human melanoma, and as a result, no previous MCR1-RT study has employed successfully human melanoma cell xenografts. […] This introduces innovative Pb-specific chelator combined with a “click-cyclized” peptide (PSC-C-MCR1) to improve tumor:kidney ratio of radionuclide uptake 7-fold. An effective therapy for metastatic melanoma is developed that combines MCR1-RT with pharmacological agents (PBA; BRAFi/MEKi; HDACi) that enhance MCR1 expression.
Melanoma is the fastest growing cancer incidence in the United States. Surgery combined with radiation can be curative at early stages. However, metastatic melanoma is almost uniformly fatal (5-yr survival 17%). Recent breakthrough targeted MAPKi therapies (e.g., BRAFi) and immunotherapies (e.g., PD-1 inhibitors) have improved outcomes, but low response rates, acquired drug resistance, and adverse side effects limit quality of life for metastatic melanoma patients. For example, approval of immune-checkpoint inhibitor ipilimumab was based on an improvement in overall survival of only 3.7 months (overall response <15%). Combination immunotherapies have improved response (up to 61%), but grade 3/4 adverse events (up to 55%) often lead to therapy discontinuation (up to 36%). For targeted therapies, BRAF inhibitor vemurafenib was approved based on overall survival at 6 months of 84% vs 64% in the control arm (dacarbazine). Combining BRAFi with MEK inhibitors (MEKi) has led to modest improvements, yet recurrence is virtually inevitable. The mechanisms of acquired drug resistance are complex, and include altered/alternative oncogenic pathways; tumor heterogeneity; and enhanced DNA repair. Melanocortin-receptor type 1 targeted radionuclide therapy (MCR1-RT) has long been considered a promising alternative treatment for melanoma; and MCR1-targeted α-particle therapy (^212Pb) has achieved complete responses in mice bearing mouse (B16) tumors that highly express MCR1. However, these studies have been confined primarily to mouse melanoma (B16) cells because MCR1 expression is heterogeneous/low in human melanoma.
Combination therapies for metastatic melanoma are emerging as common practice (e.g., BRAFi plus MEK; and combination immunotherapies), but melanoma almost invariably develops resistance. MCR1-RT has long been considered a promising alternative, but previous therapy studies have been limited to the use of B16 mouse melanoma cells that highly express the MCR1 protein, because native MCR1 expression in human melanoma is heterogeneous/low.

The next series has as its system MC1R expression. Put plainly: Real-time PCR analysis of MC1R expression in melanoma cells. The series is classed as cell-based, human. The following applies: substantiated by flow cytometry and radiopeptide binding. The protocol:
FIG. 10. Real-time PCR analysis of MC1R expression in A2058 and MEWO melanoma cells. A2058 cells were exposed to BRAFi GSK2118436, MEKi GSK1120212 and HDACi PBA for 24 h. Similarly, MEWO cells were treated with PBA and SAHA. Total RNA was isolated and reverse transcripted to cDNA. Real-time PCR was performed using 50 ng of each cDNA sample with labeled primer VIC-MC1R and FAM-NADPH. mRNA fold changes were calculated by ΔΔCt method and expressed as (n=3; Mean±SEM).
qPCR measurements are included to measure the change in MCR1 mRNA with changes in the concentration and incubation time for each drug and combinations (FIG. 10). These experiments are carried out as in FIG. 10 according to manufacturers' protocols, cells are seeded into 6-well plates until ˜80% confluent. After drug treatments, total RNA is isolated (Qiagen RNeasy Mini Kit). 1 μg of total RNA from each cell sample is used for reverse transcription using a high capacity reverse transcription kit (Applied Biosystem). cDNA samples are kept at −80° C. until use. Upon use, cDNA templates are employed in the qRT-PCR using a Taqman Gene Expression Assay for human MC1R (Assay ID: Hs00267167_s1). Human 18S (Assay ID: Hs99999901_s1) and human GAPDH (Assay ID: Hs03929097_g1) are used as housekeeping gene controls. […] Reactions are carried out in Applied Biosystem 7900HT. mRNA level is calculated by comparative ΔΔCt method.
On the technique in general: In qPCR the cycle at which signal appears reflects the starting amount.

Series [1] in a line: Tumor and kidney accumulation of click cyclized MCR1 peptide in mouse studies. Particulars: kidney, iv, 90 min. post i.v. injection. The series is classed as in vivo. The source says: (§1) The peptide backbone selected for the proposed investigation is based on a variant that was introduced previously with the addition of new evidence for improved internalization with the inclusion of a short polyethylene glycol linker between the chelator and the peptide backbone (FIG. 17). […] This peptide performance represents a 7-fold improvement in tumor:kidney ratio compared to the Re-cyclized peptide used previously. The use of the Re-cyclized peptide is for comparison to the previously published alpha-particle MCR1-targeted therapy study (using B16 mouse melanoma tumors). (Leachman S A, Cassidy P B, Chen S C, Curiel C, Geller A, Gareau D, Pellacani G, Grichnik J M, Malvehy J, North J, Jacques S L, Petrie T, Puig S, Swetter S M, Tofte S, Weinstock M A. Methods of Melanoma Detection. Cancer Treat Res. 2016; 167:51-105.) Thus, the DOTA-C-MCR1 (published previously) and new PSC-C-MCR1 peptides shown in FIG. 17 are used to take advantage of the observed improved tumor:kidney ratio.
(§2) Preliminary data support the hypothesis that co-injection of PBA with [^203Pb]MCR1-targeted peptides can reduce kidney accumulation of the radiopeptide (FIGS. 14A-B), while improving tumor accumulation in mice bearing human metastatic melanoma tumors (FIG. 14B imaging; FIGS. 15A-B therapy). […]

In series [2] the test system is B16 mouse metastatic melanoma tumor model. The series is described as above. The series is classed as in vivo. Particulars: i.v. injection.
Description: as §1, §2

Series [3] has the same test system. The following applies: 60 m post injection; cited from earlier work.
Another series concerns metastatic melanoma. Particulars: patients, cited from earlier work.
Series [4] concerns BRAFi-resistant A375VR cells. The series can be described thus: Clonogenic survival of BRAFi-resistant melanoma cells. The series is classed as cell-based, human. The following applies: 5 μM vemurafenib in the absence of PBA. The protocol:
FIGS. 13A-13B. PBA treatment promotes cell death of BRAFi-resistant metastatic melanoma and upregulates MCR1 expression in a time dpe. (A) BRAFi-resistant A375VR cells were incubated with 5 μM vemurafenib in combination with ER-stress-relieving drug 4-PBA for up to 6 days. […] (B) Flow cytometry analysis of MCR1 expression in A2058 and A375 malignant melanoma cells. Cells were treated with 3 mmole 4-PBA for 4 h and 24 h (n=3). The treated and untreated (control) cells were stained with anti-MC1R-phycoerythrin (PE) monoclonal antibody conjugate. Fluorescence intensity was corrected by auto-fluorescence of cells without staining and data were expressed as relative fluorescence intensity (IF) (vs. control)±SD.
Accumulation of misfolded-proteins causes upregulation and detachment of ER resident protein GRP78 from ER sensors proteins—activating the unfolded protein response (UPR) and downstream signaling pathways (including autophagy). […] Thus, the potential for a pharmacological treatment that would sensitize BRAFi-resistant cells to BRAFi by reducing ER-stress was considered. BRAFi-resistant A375VR melanoma cells were incubated with BRAFi vemurafenib alone and in combination with ER-stress relieving PBA.

For the compound `O=C(CCCCCCC(=O)Nc1ccccc1)NO` [Vorinostat], the “enhancement of MCR1 expression” value with MCR1 expression (human melanoma cells, incubation with drug) was “up to 12 fold”. The “MCR1 expression by RT-PCR” value in the series with MC1R expression was “Enhanced expression of MCR1”.
In series [1], `CCCCC(NC(C)=O)C(=O)NC1Cc2cn(nn2)CCCCC(C(=O)NC(CCCCNC(=O)CCOCCOCCNC(=O)CN2CCN(CC(=O)O)CCN(CC(=O)O)CCN(CC(=O)O)CC2)C(N)=O)NC(=O)C(Cc2c[nH]c3ccccc23)NC(=O)C(CCCNC(=N)N)NC(=O)C(Cc2ccccc2)NC(=O)C(Cc2c[nH]cn2)NC1=O` (stereo not shown) [[^68Ga]DOTA-C-MCR1, metal not drawn] (Ac-[Nle][Pra]HFRW[Lys(N3)]K([PEG2-DOTA])-NH2; triazole 2-7; configuration not given here) yielded a tissue uptake at 1.5 h of less than 5 %ID/g. Besides, the “injected dose per gram (tumor)” value in series [2] is given as “up to 16 % ID/g”. The “tumor:kidney ratio” value in series [3] was 3.4.
Consider `O=C(c1ccc(F)c(F)c1Nc1ccc(I)cc1F)N1CC(O)([C@@H]2CCCCN2)C1` [cobimetinib], for which, in the series with MCR1 expression, the MCR1 expression result is “upregulate MCR1 expression”.
On to `CC(C)(C)c1nc(-c2cccc(NS(=O)(=O)c3c(F)cccc3F)c2F)c(-c2ccnc(N)n2)s1` [dabrafenib], for which the MCR1 expression result in the series on MCR1 expression is recorded as “upregulate MCR1 expression”.
With `CCCS(=O)(=O)Nc1ccc(F)c(C(=O)c2c[nH]c3ncc(-c4ccc(Cl)cc4)cc23)c1F` [vemurafenib], the “overall survival at 6 months” value in the series with metastatic melanoma (approval trial) is recorded as 84%. The “slowing of tumor progression” value with metastatic melanoma (metastatic melanoma) is listed as “about 5.3 months”. Moreover, in the series on MCR1 expression, the MCR1 expression result is “upregulate MCR1 expression”. The clonogenic survival entry in series [4] is on record as “No change in clonogenic survival”.
As to ipilimumab: immune-checkpoint inhibitor, the “improvement in overall survival” value in the series with metastatic melanoma (basis of approval) is 3.7 months. The overall response in the series with metastatic melanoma was less than 15%.

As a reminder, the tissue uptake is the percentage of the injected dose found per gram of tissue. Higher therefore signals strong accumulation.
